Measured values: patent publication US9856480B2, “Dnazyme for silencing the expression of EGFR” (DCB-USA LLC, priority 2013, dated 2018)
Strand notation (5' to 3'): a small letter for the sugar, then the base; units joined by * are phosphorothioate-linked, units joined directly phosphodiester-linked; [ ] holds rarer units or linkages, { } end groups; capitals alone tell only the bases. d = 2'-deoxy (DNA)

Legend:
wild-type EGFR = assay: Western immunoblotting of EGFR expression and downstream signaling in wild-type EGFR cell lines; format: cell-based, human; details: A549 and CL1-5 cells, 100 nM
Method: A549, CL1-5, H1975, or CL97 was seeded onto 6-well at 3×10^5 cells/well and cultured overnight. Then, cells were separately treated with 100 nM DzControl or DzT790M-1 with lipofectamine 2000 (Invitrogen). The transfected A549 and CL1-5 cells were serum-starved for 24 h and treated with 100 ng/ml of EGF at 37° C. for 15 min. 72 h after transfection, cell were collected for analysis. Cells were washed twice by ice-cold PBS and then total protein was extracted by RIPA buffer with protease inhibitor (Roche). 50 μg of total protein from the supernatants were boiled for 5 min at 95° C. The samples were resolved on 10% SDS-PAGE gel and transferred onto nitrocellulose membranes. EGFR expression and downstream signaling were detected by using primary antibodies specific to human pEGFR(Y1068) (Cell signaling), tEGFR (Santa Cruz), pSTAT3 (Y705) (Cell signaling), tSTAT3 (Cell signaling), pAKT (5473)(Cell signaling), tAKT (Santa Cruz), pERK (T202/Y204) (Cell signaling), tERK (Santa Cruz), and cleaved PARP (Cell signaling) at 1:1000 dilution and β-actin (Santa Cruz) at 1:10000 dilution, respectively. Secondary antibodies against rabbit IgG or mouse IgG was used at 1:5000 dilution. Protein bands on membrane were visualized by exposure to the chemiluminescence substrate.
EGFR belongs to receptor tyrosine kinases. The binding of its extracellular ligands triggers receptor dimerization, tyrosine residues phosphorylation, and downstream signaling activation including signal transducer and activator of transcription 3 (STAT3), Akt, extracellular signal regulated kinases (ERK), and others. To examine the effects of DzT790M on protein expression level of EGFR and its downstream signaling, western immunoblotting was performed on DzT790M transfected cells. A549, CL1-5, H1975, or CL97 was seeded onto 6-well at 3×10^5 cells/well and cultured overnight. Then, cells were separately treated with 100 nM DzControl or DzT790M-1 with lipofectamine 2000 (Invitrogen). The transfected A549 and CL1-5 cells were serum-starved for 24 h and treated with 100 ng/ml of EGF at 37° C. for 15 min. 72 h after transfection, cell were collected for analysis. Cells were washed twice by ice-cold PBS and then total protein was extracted by RIPA buffer with protease inhibitor (Roche). […] Also, activation of downstream STAT3, AKT, and ERK signaling after EGF treatment were not inhibited by DzT790M-1 or DzT790M-2 transfection.
CL1-5 (EGFR wild-type) or H1975 (EGFR T790M) were seeded onto 6-well at 3×10^5 cells/well and cultured overnight. […] The transfected CL1-5 cells were serum-starved for 24 h and treated with 100 ng/ml of EGF at 37° C. for 15 min. 72 h after transfection, cells were collected for western blotting analysis following the above mentioned procedure. […]

H1975 xenograft tumor = assay: In vivo tumorigenesis assay, intratumoral DNAzyme; design: species or system Balb/c Nude mice
Method: (§1) 8-week-old Balb/c Nude mice were subcutaneously inoculated with 2×10^6 H1975 cells. After 7 days, mice were randomly divided into two groups consisting of ten mice in each group (DzControl or DzT790M-1). 500 pmoles of DzControl or DzT790M-1 mixed with lipofectamine 2000 were injected intratumorally at frequency of twice per week until completion of the experiments. The sizes of tumor were measured every 3-4 days. All the animal studies were performed according to the protocols approved by the Laboratory Animal Center, Academia Sinica. After the mice were sacrificed, the tumor tissues were excised and fixed by 10% formalin and embedded in paraffin. Xenograft tumor slides were stained for hematoxylin and eosin and analyzed with microscopy.
as §1, with “All the animal studies were performed according to the protocols approved by the Laboratory Animal Center, Academia Sinica.” left out, “microscopy. […] To assess the effects of DzT790M-1 on EGFR expression and downstream signaling, tumors taken from the Balb/c Nude mice were processed for western blotting.” for “microscopy.”

H1975 cells (EGFR T790M) = assay: Cell viability assay (MTT); format: cell-based, human; details: 100 nM by lipofectamine transfection, 72 h
[1] = tested on: T790M-harboring cancer cells; assay: Anti-proliferation comparison of T790M DNAzymes; format: cell-based
[2] = 500 pmoles intratumorally twice per week

Substance: DzT790M-1: 10-23 DNAzyme against EGFR T790M mRNA, arms 10/4, phosphorothioate ends: AGCTGCATGAGGCTAGCTACAACGAGAGC (DNA dA*dGdCdTdGdCdAdTdGdAdGdGdCdTdAdGdCdTdAdCdAdAdCdGdAdGdAdG*dC; further chemistry not fully specified)
- activation of downstream STAT3, AKT, and ERK signaling after EGF treatment (wild-type EGFR; 100 ng/ml EGF 15 min): not inhibited
- protein level of EGFR compared to DzControl group (wild-type EGFR; 72 h after transfection): did not decreased
- total EGFR, pEGFR, pSTAT3, pAKT, pERK expression in xenograft tumor tissue (western blotting) (H1975 xenograft tumor; [2]): significantly suppressed
- tumor tissue histology (hematoxylin and eosin) (H1975 xenograft tumor; [2]): Severe necrosis
- tumor growth (H1975 xenograft tumor; 500 pmoles with lipofectamine 2000 intratumorally twice per week, vs DzControl): significantly suppressed
- anti-proliferation effect (H1975 cells (EGFR T790M)): 50%
- anti-proliferation effect on T790M-harboring cancer cells, ranking among SEQ ID NOs:1-7 [1]: most effective
